{"source": "patent US20250332139A1", "about": "“PS[…] AND THEIR USE FOR TREATING […] AND NE[…] DISORDERS” (Transcend Therapeutics, Inc., priority 2021, published 2025)", "key": {"Sprague Dawley rats": {"tested_on": "Sprague Dawley rats", "conditions": "cited from earlier work"}, "[1]": {"molecular_target": "T1, serotonin transporter (SERT) (Rattus norvegicus, UniProt P31652)", "T1 construct": "from tissue; synaptosomes for uptake and release", "T1 sequence (P31652 whole entry)": "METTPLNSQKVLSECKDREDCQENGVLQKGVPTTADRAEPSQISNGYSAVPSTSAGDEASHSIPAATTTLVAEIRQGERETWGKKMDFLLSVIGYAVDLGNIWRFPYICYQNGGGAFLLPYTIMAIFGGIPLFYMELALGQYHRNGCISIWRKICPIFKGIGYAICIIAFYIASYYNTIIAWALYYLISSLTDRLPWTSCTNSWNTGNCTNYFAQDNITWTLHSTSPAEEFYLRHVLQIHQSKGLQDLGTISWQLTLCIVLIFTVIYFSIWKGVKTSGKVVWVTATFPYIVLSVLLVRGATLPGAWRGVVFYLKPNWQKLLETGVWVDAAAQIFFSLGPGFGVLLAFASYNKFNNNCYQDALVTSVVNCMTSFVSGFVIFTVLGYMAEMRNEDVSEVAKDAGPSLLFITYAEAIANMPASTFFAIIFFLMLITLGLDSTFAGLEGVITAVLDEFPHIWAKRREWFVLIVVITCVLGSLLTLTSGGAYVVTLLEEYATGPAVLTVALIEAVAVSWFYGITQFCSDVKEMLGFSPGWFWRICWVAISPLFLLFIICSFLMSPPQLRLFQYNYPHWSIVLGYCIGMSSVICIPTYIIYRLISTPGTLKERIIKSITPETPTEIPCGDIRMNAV", "assay": "Competitive radioligand binding, [3H]citalopram, rat brain lysates", "method": "(§1) Radioligands used were: [^3H] Citalopram (PerkinElmer NET1039250UC); [^3H] Nisoxetine (PerkinElmer NET1084250UC); [^3H] WIN35428 (PerkinElmer NET1033250UC). […] Rat brains were dissected and tissue was homogenized in cold lysis buffer, centrifged at 100×g for 2 min and the supernatant was placed in a fresh tube. Supernatant was centrifuged at 13,000×g for 10 min at 4° C. to re-pellet the cell lysate. The pellet was resuspended in fresh wash buffer (50 mM Tris-HCl; 5 mM MgCl2; 5 mM EDTA) and centrifuged a third time. The pellet was then resuspended in wash buffer containing 10% sucrose as a cryoprotectant, divided into aliquots (0.3 mL) and stored at −80° C. A sample of the homogenate was analyzed for protein content using the SIGMA® BCA assay. On the day of the assay, the membrane preparation was thawed, and the pellet resuspended in final assay buffer. […] To each well was added 150 μL membranes, 50 μL of non-specific compound or buffer and 50 μL radioligand solution in buffer. […] Ki was subsequently calculated using the Cheng-Prusoff equation."}, "C57BL/6J mice": {"tested_on": "C57BL/6J mice", "conditions": "MDMA 7.5 mg/kg 30 minutes prior to extinction training (Young 2015); cited from earlier work"}, "[2]": {"molecular_target": "T2, Human serotonin 5HT2B receptor (Homo sapiens, UniProt P41595)", "T2 construct": "host or cells: receptor-expressing membranes", "T2 sequence (P41595 whole entry)": "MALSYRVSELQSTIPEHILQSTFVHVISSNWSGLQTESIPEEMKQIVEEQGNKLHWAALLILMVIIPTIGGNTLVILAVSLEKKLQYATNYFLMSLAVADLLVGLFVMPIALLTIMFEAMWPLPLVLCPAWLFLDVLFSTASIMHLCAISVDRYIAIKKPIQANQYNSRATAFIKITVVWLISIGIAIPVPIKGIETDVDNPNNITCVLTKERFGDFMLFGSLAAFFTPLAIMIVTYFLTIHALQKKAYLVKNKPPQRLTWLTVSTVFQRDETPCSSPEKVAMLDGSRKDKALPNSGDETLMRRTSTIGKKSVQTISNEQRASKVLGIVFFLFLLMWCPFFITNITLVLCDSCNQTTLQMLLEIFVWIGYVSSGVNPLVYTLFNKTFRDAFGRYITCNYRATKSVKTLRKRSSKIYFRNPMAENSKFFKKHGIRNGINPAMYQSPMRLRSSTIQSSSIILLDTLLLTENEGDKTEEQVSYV", "assay": "5HT2B competitive radioligand binding", "conditions": "ratio of Ki values", "method": "Human serotonin 5HT2B receptor membrane preparations were divided into aliquots. On the day of the assay, membranes were diluted at 1:200 in incubation buffer. […] To each well was added 150 μL membrane preparation, 50 μL test compound, non-specific compound, or buffer alone, as well as 50 μL radioligand. The plate was incubated at 35° C. for 90 minutes with gentle agitation. […] For each concentration of drug, non-specific binding was subtracted from total binding to give specific binding. […] Ki was subsequently calculated using the ChengPrusoff equation."}, "[3]": {"tested_on": "myelin basic protein (MBP) in the amygdala", "assay": "Immunohistochemistry of myelin basic protein", "assay_type": "in vivo, rat", "conditions": "10 mg/kg IP, single dose, 24 h", "method": "Immunohistochemistry: The in-life portion of the study was conducted at WuXi Apptec (Cranbury, NJ). Sectioning and staining of brains took place at Neuroscience Associates (NSA, Knoxville, TN). […] Brains were post-fixed in PFA before shipment to NSA for processing and staining. Hemisected brains were mounted, sectioned and stained using standard protocols with myelin-basic protein primary antibody (MBP SMI-99, 1:5000, Biolegend, San Diego, CA) and anti-mouse biotinylated secondary antibody (BA-2001, Vector Laboratories, Newark, CA). Slides were imaged using a Huron Digital Pathology TissueScope LE120 whole slide scanning system. 20× objective was used with a 0.4 μm/pixel resolution."}, "[4]": {"molecular_target": "norepinephrine transporter (NET) (Rattus norvegicus, UniProt Q63380)", "sequence (Q63380 1-617)": "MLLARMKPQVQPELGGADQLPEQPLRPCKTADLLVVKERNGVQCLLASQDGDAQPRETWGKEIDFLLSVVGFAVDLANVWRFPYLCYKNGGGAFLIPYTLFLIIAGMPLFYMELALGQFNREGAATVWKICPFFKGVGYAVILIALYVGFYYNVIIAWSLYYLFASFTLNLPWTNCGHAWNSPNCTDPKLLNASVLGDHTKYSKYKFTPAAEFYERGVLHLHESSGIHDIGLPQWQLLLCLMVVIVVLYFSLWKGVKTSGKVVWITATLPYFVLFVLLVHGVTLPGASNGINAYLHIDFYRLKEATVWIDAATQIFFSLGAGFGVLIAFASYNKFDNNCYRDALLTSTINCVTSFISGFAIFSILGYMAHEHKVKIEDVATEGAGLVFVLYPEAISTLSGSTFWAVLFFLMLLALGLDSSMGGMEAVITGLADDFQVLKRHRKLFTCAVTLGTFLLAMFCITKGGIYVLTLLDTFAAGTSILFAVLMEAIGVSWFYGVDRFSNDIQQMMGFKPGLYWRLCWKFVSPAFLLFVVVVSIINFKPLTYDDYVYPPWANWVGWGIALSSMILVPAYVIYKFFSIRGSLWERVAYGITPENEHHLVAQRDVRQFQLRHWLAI", "assay": "Competitive radioligand binding, [3H]nisoxetine, rat brain lysates", "method": "as §1"}, "[5]": {"molecular_target": "T3, dopamine transporter (DAT) (Rattus norvegicus, UniProt P23977)", "T3 construct": "from tissue; synaptosomes for uptake and release", "T3 sequence (P23977 whole entry)": "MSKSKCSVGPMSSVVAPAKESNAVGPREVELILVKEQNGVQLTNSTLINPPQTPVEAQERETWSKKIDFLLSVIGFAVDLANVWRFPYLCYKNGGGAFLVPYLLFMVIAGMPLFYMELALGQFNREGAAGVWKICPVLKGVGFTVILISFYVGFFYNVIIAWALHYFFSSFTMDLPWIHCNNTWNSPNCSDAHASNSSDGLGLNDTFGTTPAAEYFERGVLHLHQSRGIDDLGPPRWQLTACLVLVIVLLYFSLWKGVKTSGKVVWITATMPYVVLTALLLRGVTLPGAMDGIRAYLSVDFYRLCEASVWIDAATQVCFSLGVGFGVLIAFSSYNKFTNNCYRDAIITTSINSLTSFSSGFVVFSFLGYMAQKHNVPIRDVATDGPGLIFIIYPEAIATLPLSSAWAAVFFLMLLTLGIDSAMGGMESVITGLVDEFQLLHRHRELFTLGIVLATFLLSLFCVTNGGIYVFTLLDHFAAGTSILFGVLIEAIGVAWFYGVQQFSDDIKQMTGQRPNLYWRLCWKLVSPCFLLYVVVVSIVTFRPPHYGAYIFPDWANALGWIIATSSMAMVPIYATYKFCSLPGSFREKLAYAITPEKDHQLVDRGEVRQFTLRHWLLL", "assay": "Competitive radioligand binding, [3H]WIN35428, rat brain lysates", "method": "as §1"}}, "note": "Like-named read-outs stand apart in the source and are kept apart here."}
{"smiles": "CNC(C)Cc1ccc2c(c1)OCO2", "note": "(racemic) [MDMA, 3,4-Methylenedioxymethamphetamine]", "values": [{"measurement": "reduction in immobility", "setting": "Sprague Dawley rats; MDMA 5 mg/kg, Flinders Sensitive Line rats (Majumder 2011)", "result": 45, "unit": "%"}, {"measurement": "reduction in immobility", "setting": "Sprague Dawley rats; MDMA 5 mg/kg, Sprague Dawley rats (Majumder 2011)", "result": 45, "unit": "%"}, {"measurement": "reduction in immobility", "setting": "Sprague Dawley rats; MDMA 10 mg/kg, Flinders Sensitive Line rats (Majumder 2011)", "result": 93, "unit": "%"}, {"measurement": "reduction in immobility", "setting": "Sprague Dawley rats; MDMA 10 mg/kg, Sprague Dawley rats (Majumder 2011)", "result": 78, "unit": "%"}, {"measurement": "Ki", "setting": "[1]", "result": 2.62, "unit": "µM"}, {"measurement": "reduced freezing (extinction recall) vs saline", "setting": "C57BL/6J mice", "result": 35, "unit": "%"}, {"measurement": "times greater affinity for the 5HT2B receptor compared with methylone", "setting": "[2]", "result": 7.5, "unit": "times"}, {"measurement": "MBP level in basolateral and central nuclei of the amygdala vs vehicle", "setting": "[3]", "result": "significant reduction in MBP"}, {"measurement": "Ki", "setting": "[4]", "result": 0.79, "unit": "µM"}, {"measurement": "Ki", "setting": "[5]", "result": 5.11, "unit": "µM"}]}
